According to PubChem BioAssay AID2060486 (Molecular Pharmacology Branch, DTP, NCI, 2025):
Where “and” joins values, the source holds several entries; their conditions need not be identical. Identical values can stand only once.

System: IGROV1 complex spheroids (HUVEC, MSC), viability % test/control
Assay: Anticancer human tumor IGROV1 cell line growth inhibition [GQUAD];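 further: spheroids exposed to compounds for 7 days before readout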
Conditions: for viability, T/C: stronger effect = lower value
Source text: DNA G-quadruplex Stabilizer Agents in Combinations in Complex Spheroids
A high-throughput screen of multi-cell type tumor spheroids was designed to identify active combinations of DNA G-quadruplex stabilizer agents and targeted small molecules. Complex spheroids include a stromal component modeled by human endothelial cells (HUVEC) and fibroblasts modeled by human mesenchymal stem cells (MSCs). The concentration ranges selected for each drug and investigational agent were based upon clinically achievable concentrations if the clinical Cmax of the agent was known.
Compounds. The drugs and investigational agents: pidnarulex (CX-5461; NSC782164), APTO-253 (NSC789042), BRACO-19 (NSC847499), peposertib (NSC802822), ceralasertib (NSC780249), elimusertib (NSC800525), camonsertib (NSC841442), AZD-1390 (NSC803789), olaparib (NSC753686), talazoparib (NSC767125), ART-558 (NSC835418), sotorasib (NSC818433), MRTX-1133 (NSC836407), SN-38 (NSC673596), topotecan (NSC609699), etoposide (NSC141540), doxorubicin (NSC123127), gemcitabine (NSC613327), 5-fluorouracil (NSC19893), paclitaxel (NSC125973), vemurafenib (NSC761431), panobinostat (NSC761190), R-306465 (JNJ-16241199; NSC773264), adavosertib (NSC754352), TP-3654 (NSC805149), carboplatin (NSC241240), KSQ-4279 (NSC840948), and staurosporine (NSC755774) were obtained from the National Cancer Institute (NCI) Developmental Therapeutics Program Chemical Repository (34). The FDA-approved anticancer drug set is available from the NCI Developmental Therapeutics Program. […] The stock solutions were prepared in dimethyl sulfoxide (DMSO, Sigma-Aldrich, St. Louis, MO, cat. D2650) at 800-fold the tested concentration and stored at -70 degrees C prior to their use. All drugs and investigational agents were tested over a range starting from a high concentration at or near the clinical Cmax and decreasing in half-log increments. If the clinical Cmax for an agent had not been determined, the highest concentration tested was 10 microM.
2.3 Cell Culture. All cells were maintained in an incubator at 37 degrees C and 5% CO2 with 95% humidity. The PDC lines were cultured according to standard operating procedures established by the NCI PDMR. All PDCs were thawed and cultured in Matrigel-coated flasks prepared with a working solution of 1X Ham's F-12 nutrient mix, without supplementation (Invitrogen, cat. 11765054), 100 U/mL penicillin-streptomycin (Invitrogen, cat. 15140122), and 2.5% Matrigel (Corning Inc., cat. 354248) for the first three passages. The 857933-349-R-J2-PDC line was cultured in 6C/Colon 1B media, which includes advanced DMEM/F-12 (Thermo Fisher Scientific, cat. 12634028), 10 mM HEPES (Thermo Fisher Scientific, cat. 15630080), 1X GlutaMAX supplement (Thermo Fisher Scientific, cat. 35050061), 0.1 mg/mL primocin (InvivoGen, cat. ant-pm-2), 10% defined fetal bovine serum, heat inactivated (HyClone Laboratories Inc., cat. SH30070.03HI), 50% L-WRN conditioned media (ATCC, cat. CRL-3276), 1.25 mM N-Acetyl-L-cysteine (Sigma-Aldrich, cat. A9165), 10 mM nicotinamide (Sigma-Aldrich, cat. N0636), 1X B-27 supplement (Thermo Fisher Scientific, cat. 17504044), 1X N-2 supplement (Thermo Fisher Scientific, cat. 17502048), 10 microM Y-27632 dihydrochloride (Tocris Bioscience, cat. 1254), and 50 ng/mL human EGF recombinant protein (Thermo Fisher Scientific, cat. PHG0311). The 485176-168-R4-J1-PDC line was cultured in Panc media, which includes all 6C/Colon 1B media components plus 100 ng/mL human FGF-10 (Thermo Fisher Scientific, cat. 100-26), 500 nM SB-431542 (Selleckchem, cat. S1067), and gastrin (Tocris, cat. 3006).
[…]

[1] = curve of first compound, second compound 0.0316 µM
[2] = curve of first compound, second compound 0.1 µM
[3] = curve of first compound, second compound 0.316 µM
[4] = curve of first compound, second compound 1 µM
[5] = curve of first compound, second compound 3.16 µM
[6] = curve of first compound, second compound 10 µM
[7] = second compound 0.0316 µM, first compound 0.0316 µM
[8] = second compound 0.0316 µM, first compound 0.316 µM
[9] = second compound 0.1 µM, first compound 0.0316 µM
[10] = second compound 0.1 µM, first compound 0.316 µM
[11] = second compound 0.316 µM, first compound 0.0316 µM
[12] = second compound 0.316 µM, first compound 0.316 µM
[13] = second compound 1 µM, first compound 0.0316 µM
[14] = second compound 1 µM, first compound 0.316 µM
[15] = second compound 3.16 µM, first compound 0.0316 µM
[16] = second compound 3.16 µM, first compound 0.316 µM
[17] = second compound 10 µM, first compound 0.0316 µM
[18] = second compound 10 µM, first compound 0.316 µM

O=C(NO)c1cnc(N2CCN(S(=O)(=O)c3ccc4ccccc4c3)CC2)nc1 + Cc1[nH]c2ccc(F)cc2c1-c1nc2c3cccnc3c3ncccc3c2[nH]1 was tested, and the IC50 [1] was 0.0989 µM, the IC50 [2] was 0.0962 µM and the IC50 [3] was 0.0819 µM. It also gave an IC50 [4] of under 0.0316 µM, an IC50 [5] of under 0.0316 µM and an IC50 [6] of under 0.0316 µM. The viability, T/C [7] was 87.3%, the viability, T/C (second compound 0.0316 µM, first compound 0.1 µM) was 49.5% and the viability, T/C [8] was 12.1%. The viability, T/C (second compound 0.0316 µM, first compound 1 µM) was 0.35%, the viability, T/C (second compound 0.0316 µM, first compound 3.16 µM) was 0.04% and the viability, T/C (second compound 0.0316 µM, first compound 10 µM) was 0.07%. The viability, T/C [9] was 91.5%, the viability, T/C (second compound 0.1 µM, first compound 0.1 µM) was 47.7% and the viability, T/C [10] was 20.1%. For the same compound, the viability, T/C (second compound 0.1 µM, first compound 1 µM) was 0.3%, the viability, T/C (second compound 0.1 µM, first compound 3.16 µM) was 0.05% and the viability, T/C (second compound 0.1 µM, first compound 10 µM) was 0.06%. For the same compound, the viability, T/C [11] was 91.3%, the viability, T/C (second compound 0.316 µM, first compound 0.1 µM) was 40.6% and the viability, T/C [12] was 17.2%. For the same compound, the viability, T/C (second compound 0.316 µM, first compound 1 µM) was 0.3%, the viability, T/C (second compound 0.316 µM, first compound 3.16 µM) was 0.04% and the viability, T/C (second compound 0.316 µM, first compound 10 µM) was 0.05%. For the same compound, the viability, T/C [13] was 2.48%, the viability, T/C (second compound 1 µM, first compound 0.1 µM) was 1.93% and the viability, T/C [14] was 2.47%. For the same compound, the viability, T/C (second compound 1 µM, first compound 1 µM) was 0.07%, the viability, T/C (second compound 1 µM, first compound 3.16 µM) was 0.03% and the viability, T/C (second compound 1 µM, first compound 10 µM) was 0.05%. For the same compound, the viability, T/C [15] was 1.55%, the viability, T/C (second compound 3.16 µM, first compound 0.1 µM) was 1.3% and the viability, T/C [16] was 0.5%. For the same compound, the viability, T/C (second compound 3.16 µM, first compound 1 µM) was 0.04%, the viability, T/C (second compound 3.16 µM, first compound 3.16 µM) was 0.05% and the viability, T/C (second compound 3.16 µM, first compound 10 µM) was 0.07%. It also gave a viability, T/C [17] of 1.75%, a viability, T/C (second compound 10 µM, first compound 0.1 µM) of 1.33% and a viability, T/C [18] of 0.92%. The viability, T/C (second compound 10 µM, first compound 1 µM) was 0.07%, the viability, T/C (second compound 10 µM, first compound 3.16 µM) was 0.11% and the viability, T/C (second compound 10 µM, first compound 10 µM) was 0.1%.
With C#Cc1c(F)ccc2cc(O)cc(-c3ncc4c(N5CC6CCC(C5)N6)nc(OCC56CCCN5CC(F)C6)nc4c3F)c12 (stereo unspecified) the viability, T/C (compound 0.0316 µM) was 88.9% and 93.9% and 107%, the viability, T/C (compound 0.1 µM) was 86.7% and 79.6% and 89.4% and the viability, T/C (compound 0.316 µM) was 81.5% and 89.6% and 96.4%. The viability, T/C (compound 1 µM) was 87.2% and 88.1% and 95.8%, the viability, T/C (compound 3.16 µM) was 82% and 85% and 88.4% and the viability, T/C (compound 10 µM) was 51.3% and 49% and 64.6%. For the same compound, the IC50 (curve of compound) was > 10 µM and 9.69 µM.
Cc1[nH]c2ccccc2c1CCNCc1ccc(/C=C/C(=O)NO)cc1 + Cc1cnc(CNC(=O)c2c(=O)c3ccc(N4CCCN(C)CC4)nc3n3c2sc2ccccc23)cn1 gave an IC50 [1] of 0.00626 µM, an IC50 [2] of under 0.000999 µM and an IC50 [3] of under 0.000999 µM. The IC50 [4] was under 0.000999 µM, the IC50 [5] was under 0.000999 µM and the IC50 [6] was under 0.000999 µM. For the same compound, the viability, T/C (second compound 0.0316 µM, first compound 0.000999 µM) was 65.9%, the viability, T/C (second compound 0.0316 µM, first compound 0.00316 µM) was 65.3% and the viability, T/C (second compound 0.0316 µM, first compound 0.00999 µM) was 38.7%. It also gave a viability, T/C [7] of 21.5%, a viability, T/C (second compound 0.0316 µM, first compound 0.0999 µM) of 2.35% and a viability, T/C [8] of 0.32%. For the same compound, the viability, T/C (second compound 0.1 µM, first compound 0.000999 µM) was 41.6%, the viability, T/C (second compound 0.1 µM, first compound 0.00316 µM) was 36.1% and the viability, T/C (second compound 0.1 µM, first compound 0.00999 µM) was 23.9%. It also gave a viability, T/C [9] of 19.6%, a viability, T/C (second compound 0.1 µM, first compound 0.0999 µM) of 2.91% and a viability, T/C [10] of 0.3%. It also gave a viability, T/C (second compound 0.316 µM, first compound 0.000999 µM) of 22.5%, a viability, T/C (second compound 0.316 µM, first compound 0.00316 µM) of 25.8% and a viability, T/C (second compound 0.316 µM, first compound 0.00999 µM) of 15.5%. For the same compound, the viability, T/C [11] was 15%, the viability, T/C (second compound 0.316 µM, first compound 0.0999 µM) was 3.3% and the viability, T/C [12] was 0.05%. The viability, T/C (second compound 1 µM, first compound 0.000999 µM) was 15.4%, the viability, T/C (second compound 1 µM, first compound 0.00316 µM) was 16.3% and the viability, T/C (second compound 1 µM, first compound 0.00999 µM) was 9.69%. It also gave a viability, T/C [13] of 6.52%, a viability, T/C (second compound 1 µM, first compound 0.0999 µM) of 1.86% and a viability, T/C [14] of 0.04%. The viability, T/C (second compound 3.16 µM, first compound 0.000999 µM) was 8.66%, the viability, T/C (second compound 3.16 µM, first compound 0.00316 µM) was 10.2% and the viability, T/C (second compound 3.16 µM, first compound 0.00999 µM) was 9.38%. For the same compound, the viability, T/C [15] was 6%, the viability, T/C (second compound 3.16 µM, first compound 0.0999 µM) was 0.07% and the viability, T/C [16] was 0.07%. For the same compound, the viability, T/C (second compound 10 µM, first compound 0.000999 µM) was 6.85%, the viability, T/C (second compound 10 µM, first compound 0.00316 µM) was 7.04% and the viability, T/C (second compound 10 µM, first compound 0.00999 µM) was 5.72%. The viability, T/C [17] was 4.82%, the viability, T/C (second compound 10 µM, first compound 0.0999 µM) was 0.14% and the viability, T/C [18] was 0.13%.
